Laboratory results from patent US20250270238A1, “A NEW BIFUNCTIONAL LINCHPIN THAT REACTS SELECTIVELY WITH CYSTEINE RESIDUES TO INVOKE CYCLIZATION WHILE CONCURRENTLY INTRODUCING A DOTAGA MOIETY FOR RADIOMETAL CHELATION” (The Governors of the University of Alberta, priority 2022, published 2025).

Target: recombinant human SSTR3 (Homo sapiens, UniProt P32745)
Assay: [125I]SST14 radioligand binding competition, filtration-based
Excerpt: This was accomplished using filtration-based assays against the radiolabeled peptide ^[125I]SST14. The reference compound used was the peptide SST28.
SiFALP was also used to cyclize octreotide in a model reaction (Scheme 6).

Sequence of recombinant human SSTR3 (P32745 whole entry): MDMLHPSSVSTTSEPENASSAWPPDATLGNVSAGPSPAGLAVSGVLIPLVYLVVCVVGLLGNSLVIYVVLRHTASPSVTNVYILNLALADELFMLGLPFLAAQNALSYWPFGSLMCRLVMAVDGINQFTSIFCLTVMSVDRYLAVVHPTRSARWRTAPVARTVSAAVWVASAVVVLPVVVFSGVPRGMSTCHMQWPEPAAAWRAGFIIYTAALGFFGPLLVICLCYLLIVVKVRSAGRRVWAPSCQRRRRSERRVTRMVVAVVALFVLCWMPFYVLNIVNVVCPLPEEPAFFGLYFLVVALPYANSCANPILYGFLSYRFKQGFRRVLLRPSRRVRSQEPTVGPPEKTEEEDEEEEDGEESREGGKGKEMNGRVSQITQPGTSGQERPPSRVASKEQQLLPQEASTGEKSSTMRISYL

## C[C@@H](O)[C@@H]1NC(=O)[C@H](CCCCN)NC(=O)[C@@H](Cc2c[nH]c3ccccc23)NC(=O)[C@H](Cc2ccccc2)NC(=O)[C@@H](NC(=O)[C@H](N)Cc2ccccc2)CSC2=C(SC[C@@H](C(=O)N[C@H](CO)[C@@H](C)O)NC1=O)C(=O)N(Cc1cn(Cc3ccc([Si](F)(C(C)(C)C)C(C)(C)C)cc3)nn1)C2=O [Octreo-SiFA]
  IC50: 0.211 µM
